Entries after “also recorded” stand apart in the source; their conditions may differ. Where two headings read alike, the source gives them in different places.
Assays:
[1] = system: recognition memory; assay type: in vivo; conditions: 48-hour interval
From the text: In this evaluation, donepezil (Aricept) is used as the acetylcholinesterase inhibitor component and 3-(1-naphthylsulfonyl)-5-piperazin-1-yl-1H-indazole (Test Compound A) is used as the 5-HT6 component. Novel object recognition is a single trial non-aversive learning paradigm that utilizes the rodent's natural tendency to explore an unfamiliar object more than a familiar one. The learning phase of the paradigm consists of recording the amount of time a rat explores two identical objects it has never seen before during a 5-minute period. Following a 48-hour interval, during which the animal is returned to its homecage, the animal is placed back into the same environment now containing one of the original objects (familiar) and one never experienced before (novel). Recognition memory is reflected as an increase in time spent exploring the novel object relative to that spent exploring the familiar one. The amount of time each animal spends exploring the two objects during the memory trial is analyzed using a repeated-measures ANOVA. […] All treatments were administered prior to the first trial either orally (Test Compound A) or i.p. (Aricept).

[2] = target: T1, human cloned 5-HT6 receptors (Homo sapiens, UniProt P50406); assay: 5-HT6 binding affinity, [3H]-LSD displacement on membranes of Hela cells
T1 construct: expressed in transfected cells; host or cells: Hela cells (membrane preparation)
Method: The affinity of test compounds for the serotonin 5-HT6 receptor is evaluated in the following manner. Cultured Hela cells expressing human cloned 5-HT6 receptors are harvested and centrifuged at low speed (1,000×g) for 10.0 min to remove the culture media. The harvested cells are suspended in half volume of fresh physiological phosphate buffered saline solution and recentrifuged at the same speed. This operation is repeated. The collected cells are then homogenized in ten volumes of 50 mM Tris.HCl (pH 7.4) and 0.5 mM EDTA. The homogenate is centrifuged at 40,000×g for 30.0 min and the precipitate is collected. The obtained pellet is resuspended in 10 volumes of Tris.HCl buffer and recentrifuged at the same speed. The final pellet is suspended in a small volume of Tris.HCl buffer and the tissue protein content is determined in aliquots of 10-25 μl volumes. […] The volume of the suspended cell membranes is adjusted to give a tissue protein concentration of 1.0 mg/ml of suspension. The prepared membrane suspension (10 times concentrated) is aliquoted in 1.0 ml volumes and stored at −70° C. until used in subsequent binding experiments.
Binding experiments are performed in a 96 well microtiter plate format, in a total volume of 200 μl. […] The test compounds are added in 20.0 μl volume.
The bound complex caught on the filter disk is allowed to air dry and the radioactivity is measured in a Packard TopCount® equipped with six photomultiplier detectors, after the addition of 40.0 μl Microscint®-20 scintillant to each shallow well.
Binding in the presence of varying concentrations of test compound is expressed as a percentage of specific binding in the absence of test compound. The results are plotted as log % bound versus log concentration of test compound. […] A linear regression line of data points is plotted, from which the IC50 value is determined and the Ki value is determined based upon the following equation: […]
where L is the concentration of the radioactive ligand used and KD is the dissociation constant of the ligand for the receptor, both expressed in nM.

[3] = target: T2, human 5-HT6 receptor stabily transfected into HELA cells (Homo sapiens, UniProt P50406); assay: 5-HT6 antagonist activity using cAMP accumulation; assay type: cell-based; conditions: decrease of cAMP relative to serotonin (100 nM); 100% Imax indicates 0% intrinsic activity
T2 construct: expressed in transfected cells; host or cells: HELA cells, stably transfected
Method: Intracellular cAMP levels are measured using 96-well plates containing the human 5-HT6 receptor stabily transfected into HELA cells. Upon initiation of the assay, the media from cell maintenance is aspirated and cells are preincubated at 37° C. for 15 mins. in KREBS buffer. Following this primary incubation, the buffer is aspirated and an additional incubation is performed at 37° C. for 5 mins. in KREBS buffer containing 500 uM IBMX (3-isobutyl-1-methylxanthine). Subsequently cells are incubated with test compound concentrations ranging from 10^-5 to 10^-10M for 10 minutes at 37° C. Serotonin (100 nM) is added to the treated cells and incubated for an additional 10 minutes at 37° C. The assay is terminated by the addition of 0.5M perchloric acid. Intracellular CAMP levels are determined by radioimmunoassay through the cAMP SPA screening kit. Data are analyzed graphically with GraphPad Prism (GraphPad Software, San Diego, Calif.). […] The value is recorded as Imax (%) and shown on Table I. (100% Imax indicates 0% intrinsic activity.)

[4] = system: acetylcholine release in dorsal hippocampus; assay: Acetylcholine release in rat dorsal hippocampus, microdialysis; assay type: in vivo, Sprague Dawley rats; conditions: rat dorsal hippocampus dialysate
From the text: Male Sprague Dawley rats were anesthetized with halothane and secured in a stereotaxic frame to allow implantation of a microdialysis guide cannula above the dorsal hippocampus (coordinatesXXX; Paxinos & Watson 1986). The guide cannula was secured using dental acrylic and two small skull screws. Following surgery, animals were individually housed in microdialysis cages with free access to food and water. The following day a microdialysis probe was inserted via the guide cannula into the hippocampus. Probes were perfused with artificial cerebrospinal fluid at a flow rate of 0.5 μl/min. Dialysates were collected every 40 min and were put on dry ice immediately after collection for subsequent analysis. A 3 h stabilization period was allowed following probe insertion after which time baseline samples were collected for 120 min. Rats were then dosed with Aricept (0.5 mg/kg i.p.) or vehicle (saline, 1 ml/kg i.p.). […] Following dosing, dialysis samples were collected for 200 min. At the end of the experiment, animals were euthanized and probe placement was verified histologically. Data from animals with incorrect probe placement were discarded. Dialysates were analyzed for ACh content using LC/MS/MS.

[5] = 5-HT6 antagonist 1 mg/kg po alone

T1 sequence (P50406 whole entry): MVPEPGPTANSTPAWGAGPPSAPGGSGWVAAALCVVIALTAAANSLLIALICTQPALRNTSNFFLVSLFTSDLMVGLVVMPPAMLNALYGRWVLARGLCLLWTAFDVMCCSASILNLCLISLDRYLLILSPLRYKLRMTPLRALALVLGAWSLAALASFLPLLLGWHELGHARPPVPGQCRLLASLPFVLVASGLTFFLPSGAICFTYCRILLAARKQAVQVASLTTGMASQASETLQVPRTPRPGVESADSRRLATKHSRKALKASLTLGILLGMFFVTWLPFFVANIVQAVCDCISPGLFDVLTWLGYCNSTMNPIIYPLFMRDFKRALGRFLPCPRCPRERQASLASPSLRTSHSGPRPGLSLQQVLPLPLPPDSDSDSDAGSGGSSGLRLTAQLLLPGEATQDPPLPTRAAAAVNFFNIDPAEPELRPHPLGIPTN
T2 sequence (P50406 whole entry): as above

SMILES	Ki [2] [nM]	% Imax [3] [%]	retention for the familiar objects (novel object recognition) [1, 5]	also measured
COc1ccc2c3c1O[C@H]1C[C@@H](O)C=C[C@@]31CCN(C)C2 [Razadyne, galanthamine]				retention for the familiar objects (novel object recognition) ([1]; Razadyne 0. alone): neither Razadyne (0.1 mg/kg, ip) alone nor Test Compound B (1 mg/kg, po) alone enhanced retention
O=S(=O)(c1ccccc1)n1ncc2c(N3CCNCC3)cccc21 [Test Compound D, 1-(phenylsulfonyl)-4-(1-piperazinyl)-1H-indazole]	0.6	100		
COc1cc2c(cc1OC)C(=O)C(CC1CCN(Cc3ccccc3)CC1)C2 (centres unmarked) [Aricept, donepezil]				retention for the familiar objects (novel object recognition) ([1]; Aricept 0.5 mg/kg ip alone): neither Aricept (0.5 mg/kg, ip) nor Test Compound A (1 mg/kg, po) alone enhanced retention; also recorded: produced no enhancement of recognition memory; also recorded: neither Aricept (0.5 mg/kg, ip) alone nor Test Compound B (1 mg/kg, po) alone enhanced retention; retention for the familiar objects (novel object recognition) ([1]; Aricept alone): enhanced retention for the familiar objects; increase in acetylcholine concentration (change from baseline) ([4]; Aricept 0.5 mg/kg i.p. alone): 50%
NCCOc1cccc2c(S(=O)(=O)c3cccc4ccccc34)n[nH]c12 [Test Compound C, (2-{[3-(1-naphthylsulfonyl)-1H-indazol-7-yl]oxy}ethyl)amine]	1.9	100		
O=S(=O)(c1cccc2ccccc12)c1n[nH]c2ccc(N3CCNCC3)cc12 [Test Compound A, 3-(1-naphthylsulfonyl)-5-piperazin-1-yl-1H-indazole]	1.1	100	neither Aricept (0.5 mg/kg, ip) nor Test Compound A (1 mg/kg, po) alone enhanced retention	retention for the familiar objects (novel object recognition) ([1]; 5-HT6 antagonist 3 mg/kg po alone): enhanced retention for the familiar objects
CN(C)CCCOc1ccc2[nH]nc(S(=O)(=O)c3cccc4ccccc34)c2c1 [Test Compound B, N,N-dimethyl-3-{[3-(1-naphthylsulfonyl)-1H-indazol-5-yl]oxy}propan-1-amine]			neither Aricept (0.5 mg/kg, ip) alone nor Test Compound B (1 mg/kg, po) alone enhanced retention; also recorded: neither Razadyne (0.1 mg/kg, ip) alone nor Test Compound B (1 mg/kg, po) alone enhanced retention	effect on acetylcholine concentration (change from baseline) ([4]; Test Compound B 1 mg/kg p.o. alone): did not affect acetylcholine

From patent publication US20070167431A1, “Method for the treatment of cognitive dysfunction” (Wyeth, priority 2006, published 2007)
